This assay has as its target T1, Histidine-binding periplasmic protein [1-238] (Escherichia coli (strain 55989 / EAEC), UniProt P0AEU0).
T1 construct: 1-238
T1 sequence (P0AEU0 whole entry): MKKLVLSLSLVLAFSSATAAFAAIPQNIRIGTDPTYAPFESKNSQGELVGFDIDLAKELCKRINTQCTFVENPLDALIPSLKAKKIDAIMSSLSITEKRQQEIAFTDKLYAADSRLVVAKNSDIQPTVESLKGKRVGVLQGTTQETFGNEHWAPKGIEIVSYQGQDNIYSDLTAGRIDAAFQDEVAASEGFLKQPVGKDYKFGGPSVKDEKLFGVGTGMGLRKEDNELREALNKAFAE
The assay can be described thus: Isothermal Titration Calorimetry (ITC). As to conditions: pH 7; 30 °C. As for the experimental part:
All ITC experiments were performed using a Microcal VP-ITC microcalorimeter (GE Healthcare). All samples were prepared in a buffer containing 20 mM HEPES (pH 7.0) and 100 mM NaCl. The syringe was filled with 0.5 mM histidine that was injected into the ITC cell containing 20 μM protein (D1, D2, or HisJ) solution at 30 °C.
Background: Isothermal titration calorimetry measures the heat released or taken up as one component is titrated into another.

SMILES strings stand for the structures.

For orientation: Kd means a measure of binding affinity in units of concentration. `N[C@@H](Cc1c[nH]cn1)C(=O)O` [L-2-Amino-3-(4-imidazolyl)propionic acid] came in with a Kd of 0.114 µM.
